Results taken from PMC6479757, “Coralmycin Derivatives with Potent Anti-Gram Negative Activity Produced by the Myxobacteria Corallococcus coralloides M23” (Molecules, 2019).
≈ marks a conversion by molar mass, not a printed value. Read-outs that look alike come from different tables or passages of the source.

Tests used:
MRSA CCARM 3506 = experiment: Antibacterial susceptibility, broth microdilution MIC; type: cell-based; conditions: Staphylococcus aureus, 24-h incubation at 37 °C
Experimental: (§1) Whole-cell antimicrobial activities were determined using a broth microdilution method described previously. Most of the test strains were grown to mid-log phase in Mueller–Hinton broth and diluted 1,000-fold in the same medium. Cells (10^5/mL) were dispensed at 0.2 mL/well in 96-well microtiter plates. Streptococcus pneumonia and Acinetobacter baumanii were grown in Todd–Hewitt medium and nutrient broth, respectively. […]. Cells were treated with 0.05% DMSO as a vehicle control. The MICs were determined in triplicate by serial two-fold dilutions of the test compounds. […] Bacterial growth was determined by measuring the absorption at 650 nm using a microtiter enzyme-linked immunosorbent assay (ELISA) reader (Molecular Devices Corporation, Sunnyvale, CA, USA).

[1] = test system: Pseudomonas aeruginosa KCTC 2004; experiment: as above; type: cell-based; conditions: for MIC: KCTC2004, Pseudomonas aeruginosa KCTC 2004, 24-h incubation at 37 °C
Experimental: as §1

[2] = test system: Streptococcus pneumonia KCTC 5412; experiment: as above; type: cell-based; conditions: Streptococcus pneumoniae, KCTC5412, Todd–Hewitt medium, 24-h incubation at 37 °C
Experimental: as §1

QRSA CCARM 3505 = experiment: as above; type: cell-based; conditions: Staphylococcus aureus
Experimental: as §1

E. coli KCTC 1682 = experiment: as above; type: cell-based; conditions: Escherichia coli
Experimental: as §1

E. coli CCARM 1356 = experiment: as above; type: cell-based; conditions: Escherichia coli, CCARM1356, 24-h incubation at 37 °C
Experimental: as §1

[3] = test system: Enterococcus faecalis KCTC 5191; experiment: as above; type: cell-based; conditions: KCTC5191, 24-h incubation at 37 °C
Experimental: as §1

[4] = test system: Klebsiella pneumoniae KCTC 22057; experiment: as above; type: cell-based; conditions: for MIC: KCTC22057, Klebsiella pneumoniae KCTC 22057, 24-h incubation at 37 °C
Experimental: as §1

[5] = test system: Acinetobacter baumannii KCTC 2508; experiment: as above; type: cell-based; conditions: KCTC2508, nutrient broth, 24-h incubation at 37 °C
Experimental: as §1

QRSA CCARM 3519 = experiment: as above; type: cell-based; conditions: Staphylococcus aureus
Experimental: as §1

E. coli DNA gyrase = molecular target: T1, E. coli DNA gyrase (Escherichia coli, UniProt P0AES4+P0AES6); experiment: DNA gyrase supercoiling assay; type: biochemical
T1 construct: purchased TopoGEN TG2001G
T1 sequence (P0AES4 whole entry, one chain of several): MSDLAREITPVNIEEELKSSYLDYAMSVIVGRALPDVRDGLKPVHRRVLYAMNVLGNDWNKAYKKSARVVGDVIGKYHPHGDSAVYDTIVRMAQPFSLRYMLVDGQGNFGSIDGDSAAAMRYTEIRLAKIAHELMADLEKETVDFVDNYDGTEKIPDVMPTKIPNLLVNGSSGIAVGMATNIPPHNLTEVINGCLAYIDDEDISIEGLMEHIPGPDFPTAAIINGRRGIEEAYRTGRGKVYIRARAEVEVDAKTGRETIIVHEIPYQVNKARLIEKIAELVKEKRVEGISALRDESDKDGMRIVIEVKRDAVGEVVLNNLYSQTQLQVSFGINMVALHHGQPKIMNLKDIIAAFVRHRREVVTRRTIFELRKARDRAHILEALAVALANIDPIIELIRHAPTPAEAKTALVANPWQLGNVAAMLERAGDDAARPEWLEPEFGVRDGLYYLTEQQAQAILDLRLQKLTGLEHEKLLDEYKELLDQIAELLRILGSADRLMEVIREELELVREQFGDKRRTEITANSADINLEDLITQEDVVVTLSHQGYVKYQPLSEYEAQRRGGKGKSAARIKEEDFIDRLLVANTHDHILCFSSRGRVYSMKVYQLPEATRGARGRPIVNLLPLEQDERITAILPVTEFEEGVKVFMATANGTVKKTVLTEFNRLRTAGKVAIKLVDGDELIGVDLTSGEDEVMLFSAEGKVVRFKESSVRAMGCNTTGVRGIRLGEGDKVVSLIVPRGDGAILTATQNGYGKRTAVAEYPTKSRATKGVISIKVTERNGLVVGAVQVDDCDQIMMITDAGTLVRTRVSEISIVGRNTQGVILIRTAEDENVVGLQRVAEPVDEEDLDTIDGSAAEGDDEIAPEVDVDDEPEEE
Experimental: The inhibitory activities of coralmycins on the supercoiling activity of DNA gyrase were investigated using a ‘Purified E. coli DNA Gyrase Drug Screening Kit’ (TopoGEN #TG2001G, Buena Vista, CO, USA). […] The reaction was terminated by the addition of 2 μL of 10% (w/v) SDS and 2 μL of 10× DNA gel loading dye (bromophenol blue). Then, 20 μL of chloroform:isoamyl alcohol (24:1 mixture) was added, and the mixture was vortexed and then centrifuged. The samples in the blue phase were run on 1% (w/v) agarose gel and were visualized using ethidium bromide. All reactions were performed in triplicate. To calculate the IC50 values, the band densities were measured using ImageJ (National Institutes of Health, Bethesda, Maryland, MD, USA).

MRSA CCARM 3167 = experiment: Antibacterial susceptibility, broth microdilution MIC; type: cell-based; conditions: Staphylococcus aureus, 24-h incubation at 37 °C
Experimental: as §1

[6] = test system: Staphylococcus aureus RN 4220; experiment: as above; type: cell-based; conditions: RN4220, 24 h
Experimental: (§2) Whole-cell antimicrobial activities were determined using a broth microdilution method described previously. Most of the test strains were grown to mid-log phase in Mueller–Hinton broth and diluted 1,000-fold in the same medium. Cells (10^5/mL) were dispensed at 0.2 mL/well in 96-well microtiter plates. Streptococcus pneumonia and Acinetobacter baumanii were grown in Todd–Hewitt medium and nutrient broth, respectively. […] Cells were treated with 0.05% DMSO as a vehicle control. The MICs were determined in triplicate by serial two-fold dilutions of the test compounds. […] Bacterial growth was determined by measuring the absorption at 650 nm using a microtiter enzyme-linked immunosorbent assay (ELISA) reader (Molecular Devices Corporation, Sunnyvale, CA, USA).

Gram-negative bacteria = experiment: Antibacterial activity against Gram-negative bacteria; type: cell-based; conditions: at 32 μg/mL
Experimental: as §2

tested bacterial strains = experiment: Antibacterial activity against all tested strains; type: cell-based; conditions: at 32 μg/mL
Experimental: as §2

[7] = KCTC1682, 24-h incubation at 37 °C, Table 6 and Table S1, read-out: MIC
[8] = KCTC1682, Table 7, read-out: MIC, antibacterial activity on E. coli KCTC 1682
[9] = relaxed plasmid, 37 °C for 30 min, agarose gel band densities, read-out: IC50, inhibition of the supercoiling activity of E. coli DNA gyrase
[10] = CCARM3505, QRSA CCARM 3505, 24-h incubation at 37 °C, read-out: MIC
[11] = CCARM3519, QRSA CCARM 3519, 24-h incubation at 37 °C, read-out: MIC

SMILES	MIC (MRSA CCARM 3506)	MIC [1]	MIC [2]	MIC (E. coli KCTC 1682; [7])	MIC (E. coli KCTC 1682; [8])	MIC (E. coli CCARM 1356)	MIC [3]	MIC [4]	MIC [5]	IC50 (E. coli DNA gyrase; [9])	MIC (QRSA CCARM 3505; [10])	MIC (MRSA CCARM 3167)	MIC (QRSA CCARM 3519; [11])	MIC [6]	further results
O=C(O)c1cn(C2CC2)c2cc(N3CCNCC3)c(F)cc2c1=O [Cip, Ciprofloxacin, reference compound]	2 µg/mL (≈ 6.04 µM)	0.03 µg/mL (≈ 0.0905 µM)	0.25 µg/mL (≈ 0.754 µM)	0.06 µg/mL (≈ 0.181 µM)	0.06 µg/mL (≈ 0.181 µM)	64 µg/mL (≈ 193 µM)	0.5 µg/mL (≈ 1.51 µM)	0.015 µg/mL (≈ 0.0453 µM)	0.25 µg/mL (≈ 0.754 µM)	–	–	–	–	–	MIC (QRSA CCARM 3505; CCARM3505, 24 h): 128 µg/mL (≈ 386 µM); MIC (QRSA CCARM 3519; CCARM3519, 24 h): 128 µg/mL (≈ 386 µM)
CO[C@@H](C(=O)O)[C@H](NC(=O)c1ccc(NC(=O)c2ccc([N+](=O)[O-])cc2)cc1)C(=O)Nc1ccc(C(=O)Nc2ccc(C(=O)Nc3ccc(C(=O)O)cc3OC(C)C)c(O)c2OC(C)C)cc1 [Compound 1, Coralmycin C]	4 µg/mL (≈ 4.34 µM)	> 32 µg/mL	4 µg/mL (≈ 4.34 µM)	> 32 µg/mL	> 32 µg/mL	> 32 µg/mL	8 µg/mL (≈ 8.69 µM)	> 32 µg/mL	> 32 µg/mL	420 nM	4 µg/mL (≈ 4.34 µM)	4 µg/mL (≈ 4.34 µM)	4 µg/mL (≈ 4.34 µM)	4 µg/mL (≈ 4.34 µM)	antibacterial activity against Gram-negative bacteria (Gram-negative bacteria): no antibacterial activity
CO[C@@H](C(N)=O)[C@H](NC(=O)c1ccc(NC(=O)c2ccc(N)cc2)cc1)C(=O)Nc1ccc(C(=O)Nc2ccc(C(=O)Nc3ccc(C(=O)O)cc3OC(C)C)c(O)c2OC(C)C)cc1 [Compound 2, Coralmycin D]	0.5 µg/mL (≈ 0.562 µM)	> 32 µg/mL	2 µg/mL (≈ 2.25 µM)	1 µg/mL (≈ 1.12 µM)	1 µg/mL (≈ 1.12 µM)	1 µg/mL (≈ 1.12 µM)	1 µg/mL (≈ 1.12 µM)	> 32 µg/mL	4 µg/mL (≈ 4.49 µM)	510 nM	1 µg/mL (≈ 1.12 µM)	0.5 µg/mL (≈ 0.562 µM)	1 µg/mL (≈ 1.12 µM)	0.25 µg/mL (≈ 0.281 µM)	growth inhibition of P. aeruginosa ([1]; at 32 μg/mL): did not inhibit the growth; growth inhibition of K. pneumonia ([4]; at 32 μg/mL): did not inhibit the growth
CO[C@@H](C(N)=O)[C@H](NC(=O)c1ccc(N)cc1)C(=O)Nc1ccc(C(=O)Nc2ccc(C(=O)Nc3ccc(C(=O)O)cc3OC(C)C)c(O)c2OC(C)C)cc1 [Compound 3, Coralmycin E]	> 32 µg/mL	> 32 µg/mL	> 32 µg/mL	> 32 µg/mL	> 32 µg/mL	> 32 µg/mL	> 32 µg/mL	> 32 µg/mL	> 32 µg/mL	39100 nM	> 32 µg/mL	> 32 µg/mL	> 32 µg/mL	> 32 µg/mL	antibacterial activities against any of the tested bacterial strains (tested bacterial strains): no antibacterial activities
CCOc1cc(C(=O)O)ccc1NC(=O)c1ccc(NC(=O)c2ccc(N)cc2)c(OCC)c1O [Compound 4, Coralmycin F]	> 32 µg/mL	> 32 µg/mL	> 32 µg/mL	> 32 µg/mL	> 32 µg/mL	> 32 µg/mL	> 32 µg/mL	> 32 µg/mL	> 32 µg/mL	–	> 32 µg/mL	> 32 µg/mL	> 32 µg/mL	> 32 µg/mL	IC50 (E. coli DNA gyrase): > 300000 nM
COc1cc(C(=O)O)ccc1NC(=O)c1ccc(NC(=O)c2ccc(N)cc2)c(OC(C)C)c1O [Compound 5, Coralmycin G]	> 32 µg/mL	> 32 µg/mL	> 32 µg/mL	> 32 µg/mL	–	> 32 µg/mL	> 32 µg/mL	> 32 µg/mL	> 32 µg/mL	–	> 32 µg/mL	> 32 µg/mL	> 32 µg/mL	> 32 µg/mL	–
